Measured values taken from ChEMBL document CHEMBL4270599, “Synthesis of a 3'-C-ethynyl-β-d-ribofuranose purine nucleoside library: Discovery of C7-deazapurine analogs as potent antiproliferative nucleosides” (Eur J Med Chem, 2018).

What was measured:
Assay type in all cases: functional
COLO 205 = assay: Growth inhibition of human COLO205 cells assessed as cell growth at 10^-8 M incubated for 48 hrs by sulforhodamine B assay relative to control; conditions: COLO 205, 48 h, read-out: Activity
SF-295 = assay: Growth inhibition of human SF295 cells assessed as cell growth at 10^-8 M incubated for 48 hrs by sulforhodamine B assay relative to control; conditions: SF-295, 48 h, read-out: Activity
Hs-578T = assay: Growth inhibition of human Hs 578T cells assessed as cell growth at 10^-7 M incubated for 48 hrs by sulforhodamine B assay relative to control; conditions: read-out: Activity
NCI-H460 [1] = assay: Cytotoxicity against human NCI-H460 cells after 48 hrs by SRB assay; conditions: NCI-H460, 48 h
SR = assay: Growth inhibition of human SR cells assessed as cell growth at 10^-7 M incubated for 48 hrs by sulforhodamine B assay relative to control; conditions: read-out: Activity
HOP-92 = assay: Growth inhibition of human HOP92 cells assessed as cell growth at 10^-8 M incubated for 48 hrs by sulforhodamine B assay relative to control; conditions: HOP-92, 48 h, read-out: Activity
MDA-MB-468 = assay: Cytotoxicity against human MDA-MB-468 cells after 48 hrs by SRB assay; conditions: MDA-MB-468, 48 h
KM12 = assay: Growth inhibition of human KM12 cells assessed as cell growth at 10^-8 M incubated for 48 hrs by sulforhodamine B assay relative to control; conditions: KM12, 48 h, read-out: Activity
IGROV-1 [2] = assay: Cytotoxicity against human IGROV1 cells after 48 hrs by SRB assay; conditions: IGROV-1, 48 h
NCI-H460 [3] = assay: Growth inhibition of human NCI-H460 cells assessed as cell growth at 10^-8 M incubated for 48 hrs by sulforhodamine B assay relative to control; conditions: NCI-H460, 48 h, read-out: Activity
OVCAR-8 = assay: Growth inhibition of human OVCAR8 cells assessed as cell growth at 10^-7 M incubated for 48 hrs by sulforhodamine B assay relative to control; conditions: OVCAR-8, 48 h, read-out: Activity
SNB-19 = assay: Growth inhibition of human SNB19 cells assessed as cell growth at 10^-7 M incubated for 48 hrs by sulforhodamine B assay relative to control; conditions: SNB-19, 48 h, read-out: Activity
IGROV-1 [4] = assay: Growth inhibition of human IGROV1 cells assessed as cell growth at 10^-7 M incubated for 48 hrs by sulforhodamine B assay relative to control; conditions: IGROV-1, 48 h, read-out: Activity
HCT-15 = assay: Growth inhibition of human HCT15 cells assessed as cell growth at 10^-4 M incubated for 48 hrs by sulforhodamine B assay relative to control; conditions: HCT-15, 48 h, read-out: Activity
HL-60(TB) = assay: Growth inhibition of human HL-60(TB) cells assessed as cell growth at 10^-8 M incubated for 48 hrs by sulforhodamine B assay relative to control; conditions: HL-60, 48 h, read-out: Activity
SNB-75 = assay: Growth inhibition of human SNB75 cells assessed as cell growth at 10^-7 M incubated for 48 hrs by sulforhodamine B assay relative to control; conditions: SNB-75, 48 h, read-out: Activity
RXF 393 = assay: Growth inhibition of human RXF393 cells assessed as cell growth at 10^-7 M incubated for 48 hrs by sulforhodamine B assay relative to control; conditions: RXF 393, 48 h, read-out: Activity
LOX IMVI [5] = assay: Growth inhibition of human LOXIMVI cells assessed as cell growth at 10^-7 M incubated for 48 hrs by sulforhodamine B assay relative to control; conditions: read-out: Activity
MCF7 = assay: Cytotoxicity against human MCF7 cells after 48 hrs by SRB assay; conditions: MCF7, 48 h
MDA-MB-231 [6] = assay: Growth inhibition of human MDA-MB-231 cells assessed as cell growth at 10^-6 M incubated for 48 hrs by sulforhodamine B assay relative to control; conditions: MDA-MB-231, 48 h, read-out: Activity
HT-29 = assay: Cytotoxicity against human HT-29 cells after 48 hrs by SRB assay; conditions: HT-29, 48 h
K562 [7] = assay: Growth inhibition of human K562 cells assessed as cell growth at 10^-7 M incubated for 48 hrs by sulforhodamine B assay relative to control; conditions: K562, 48 h, read-out: Activity
MDA-MB-231 [8] = assay: Growth inhibition of human MDA-MB-231 cells assessed as cell growth at 10^-8 M incubated for 48 hrs by sulforhodamine B assay relative to control; conditions: MDA-MB-231, 48 h, read-out: Activity
NCI-H23 [9] = assay: Cytotoxicity against human NCI-H23 cells after 48 hrs by SRB assay; conditions: NCI-H23, 48 h
K562 [10] = assay: Growth inhibition of human K562 cells assessed as cell growth at 10^-8 M incubated for 48 hrs by sulforhodamine B assay relative to control; conditions: K562, 48 h, read-out: Activity
LOX IMVI [11] = assay: Cytotoxicity against human LOXIMVI cells after 48 hrs by SRB assay
U-251 = assay: Cytotoxicity against human U251 cells after 48 hrs by SRB assay; conditions: U-251, 48 h, read-out: LC50 (the source's name)
NCI-H23 [12] = assay: Growth inhibition of human NCI-H23 cells assessed as cell growth at 10^-7 M incubated for 48 hrs by sulforhodamine B assay relative to control; conditions: NCI-H23, 48 h, read-out: Activity
[13] = read-out: pLC50 (the source's name) (converted)
[14] = read-out: LC50 (the source's name)

C#C[C@@]1(O)[C@@H](CO)O[C@@H](n2cc(Cl)c3c(N)ncnc32)[C@@H]1O
growth at 0.01 µM (COLO 205): 93 to 96%
growth at 0.01 µM (SF-295): 82 to 92%
growth at 0.1 µM (Hs-578T): 100 to 107%
TGI (NCI-H460 [1]; read-out: TGI): 226 to 753 nM
CC50 (NCI-H460 [1]; [13]): > 100000 nM
growth at 0.1 µM (SR): 34 to 46%
growth at 0.01 µM (HOP-92): 90 to 97%
GI50 (MDA-MB-468; read-out: GI50): 180 to 243 nM
TGI (MDA-MB-468; read-out: TGI): 451 to 751 nM
CC50 (MDA-MB-468; [13]): 2090 nM
growth at 0.01 µM (KM12): 85 to 88%
GI50 (IGROV-1 [2]; read-out: GI50): 123 to 145 nM
CC50 (IGROV-1 [2]; [14]): > 100000 nM
TGI (IGROV-1 [2]; read-out: TGI): 475 nM
TGI (IGROV-1 [2]; read-out: pTGI (converted)): 479 nM
growth at 0.01 µM (NCI-H460 [3]): 45 to 96%
growth at 0.1 µM (OVCAR-8): 35 to 39%
growth at 0.1 µM (SNB-19): 12 to 70%
growth at 0.1 µM (IGROV-1 [4]): 57 to 65%
growth at 100 µM (HCT-15): 1%
growth at 0.01 µM (HL-60(TB)): 83 to 85%
growth at 0.1 µM (SNB-75): 104 to 110%
growth at 0.1 µM (RXF 393): 105 to 110%
growth at 0.1 µM (LOX IMVI [5]): 34 to 47%
GI50 (MCF7; read-out: GI50): 21.8 to 31.9 nM
CC50 (MCF7; [14]): 5320 to 7110 nM
TGI (MCF7; read-out: TGI): 1040 to 1160 nM
growth at 1 µM (MDA-MB-231 [6]): -4%
GI50 (HT-29; read-out: GI50): 32.2 to 59.1 nM
CC50 (HT-29; [14]): > 100000 nM
TGI (HT-29; read-out: TGI): 747 to 100000 nM
growth at 0.1 µM (K562 [7]): 45 to 55%
growth at 0.01 µM (MDA-MB-231 [8]): 88 to 100%
GI50 (NCI-H23 [9]; read-out: GI50): 173 to 213 nM
TGI (NCI-H23 [9]; read-out: TGI): 716 to 1280 nM
CC50 (NCI-H23 [9]; [13]): > 100000 nM
growth at 0.01 µM (K562 [10]): 93 to 97%
GI50 (LOX IMVI [11]; read-out: GI50): 36 to 81.4 nM
CC50 (LOX IMVI [11]; [14]): 756 to 871 nM
TGI (LOX IMVI [11]; read-out: TGI): 226 to 284 nM
CC50 (U-251): > 100000 nM
growth at 0.1 µM (NCI-H23 [12]): 69 to 73%
